Test results reported in US5338725A, “Anti-aggregatory agents for platelets” (The Research Foundation of the State University of New York, priority 1992, dated 1994).
Starred links: 1 amine or outer side, 2 acyl side, 3 side chain; linkers in the order of their positions; H or OH if unused. Positions of bridges follow the written chain, without caps; N, C: chain ends. Non-standard residues stand in square brackets, D forms with d. Residues, ends and D or L forms follow the SMILES beside them. Chains are numbered I, II in the order given. X2 = O=C(O)CNC(=O)c1cc(N[*:1])cc(N[*:2])c1; X1 = NC(=O)c1cc(N[*:1])cc(N[*:2])c1; Adipoyl = O=C(CCCCC(=O)[*:2])[*:1]; Glutaryl = O=C(CCCC(=O)[*:2])[*:1]; 3Abz = Nc1cccc(C(=O)O)c1; 4Abz = Nc1ccc(C(=O)O)cc1; 2Abz = Nc1ccccc1C(=O)O

Molecular target: human platelet-rich plasma (Homo sapiens, UniProt P05106+P08514)
Sequence (P08514 32-1039): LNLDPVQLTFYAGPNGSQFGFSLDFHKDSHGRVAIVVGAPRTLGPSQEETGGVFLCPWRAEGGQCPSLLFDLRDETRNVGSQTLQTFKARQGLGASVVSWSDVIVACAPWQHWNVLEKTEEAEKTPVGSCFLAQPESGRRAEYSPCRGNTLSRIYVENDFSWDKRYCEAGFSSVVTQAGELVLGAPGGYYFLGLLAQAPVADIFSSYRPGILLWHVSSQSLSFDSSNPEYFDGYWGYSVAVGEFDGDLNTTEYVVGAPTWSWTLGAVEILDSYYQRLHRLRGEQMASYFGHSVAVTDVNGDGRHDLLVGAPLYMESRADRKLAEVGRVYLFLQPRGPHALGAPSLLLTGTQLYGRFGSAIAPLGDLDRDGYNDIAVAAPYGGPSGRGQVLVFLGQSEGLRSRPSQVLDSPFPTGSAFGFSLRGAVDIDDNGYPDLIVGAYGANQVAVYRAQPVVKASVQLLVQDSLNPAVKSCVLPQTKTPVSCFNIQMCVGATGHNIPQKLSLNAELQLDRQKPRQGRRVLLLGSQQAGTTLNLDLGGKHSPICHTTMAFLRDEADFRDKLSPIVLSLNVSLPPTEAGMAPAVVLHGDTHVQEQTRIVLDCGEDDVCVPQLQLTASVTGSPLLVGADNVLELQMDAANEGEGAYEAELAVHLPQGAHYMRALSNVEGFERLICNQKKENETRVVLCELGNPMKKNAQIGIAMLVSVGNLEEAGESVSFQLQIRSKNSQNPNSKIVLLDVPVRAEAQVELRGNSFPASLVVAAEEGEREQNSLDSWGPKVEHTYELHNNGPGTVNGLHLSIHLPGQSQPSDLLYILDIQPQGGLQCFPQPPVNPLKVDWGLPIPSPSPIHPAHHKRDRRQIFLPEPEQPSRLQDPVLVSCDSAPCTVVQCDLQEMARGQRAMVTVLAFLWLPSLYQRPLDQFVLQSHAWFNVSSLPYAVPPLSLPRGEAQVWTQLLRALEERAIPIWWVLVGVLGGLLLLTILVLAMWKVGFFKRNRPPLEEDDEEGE
Sequence (P05106 27-788): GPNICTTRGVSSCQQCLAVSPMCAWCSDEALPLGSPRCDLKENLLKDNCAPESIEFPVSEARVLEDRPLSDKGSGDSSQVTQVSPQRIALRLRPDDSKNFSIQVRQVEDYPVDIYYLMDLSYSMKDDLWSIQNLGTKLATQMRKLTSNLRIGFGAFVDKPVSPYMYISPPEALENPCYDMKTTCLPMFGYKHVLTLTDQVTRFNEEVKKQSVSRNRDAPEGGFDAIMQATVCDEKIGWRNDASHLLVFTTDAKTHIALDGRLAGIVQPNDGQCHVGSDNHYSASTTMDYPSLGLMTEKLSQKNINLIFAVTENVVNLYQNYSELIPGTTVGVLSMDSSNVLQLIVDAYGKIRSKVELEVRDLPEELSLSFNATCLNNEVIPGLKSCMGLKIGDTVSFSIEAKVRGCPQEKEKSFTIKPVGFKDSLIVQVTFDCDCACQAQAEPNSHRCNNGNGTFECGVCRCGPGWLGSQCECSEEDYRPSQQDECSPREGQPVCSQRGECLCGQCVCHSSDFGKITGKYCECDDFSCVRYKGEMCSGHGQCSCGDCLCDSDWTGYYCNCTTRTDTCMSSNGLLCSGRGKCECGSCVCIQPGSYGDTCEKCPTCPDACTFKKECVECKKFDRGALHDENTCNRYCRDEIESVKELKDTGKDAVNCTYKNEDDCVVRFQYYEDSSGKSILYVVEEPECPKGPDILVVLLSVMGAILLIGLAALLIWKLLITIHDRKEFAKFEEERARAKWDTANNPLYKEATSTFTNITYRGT
Experiment: In vitro inhibition of ADP-induced aggregation of human platelet-rich plasma (Coller assay)
Type: cell-based
Details: adjusted for fibrinogen concentration (ca. 30 times lower than Coller assay value; 0.1 mg/mL fibrinogen)
Experimental: 1. In vitro Inhibition of Aggregation of Human Platelet-Rich Plasma
Whole blood (10 ml) was collected from human volunteers and anticoagulated by addition of […] of 40% sodium citrate. Platelet-rich plasma (PRP) was prepared by low speed centrifugation (700 G for 3.5 min at 22° C.). The PRP was removed and the remaining blood was centrifuged at 2000 G for 10 min at 22 ° C. to obtain platelet poor plasma (PPP). The PRP was diluted with PPP to give a final platelet count of 300 000μL with a Coulter Acounter Model ZM (Coulter, Hialeah, Fla.). This diluted PRP (400μL) was placed in a siliconized glass cuvette equipped with a magnetic stirrer and stirred at 1200 rpm at 37° C. Various concentrations of the peptides (36μL) in TRIS buffer (0.01 M TRIS, 0.15 M NaCl, and 0.05% sodium azide, pH 7.4) was added and incubated for 3 rain before platelet aggregation was induced by addition of 54μL of 100μM ADP in HEPES buffer (0.01 M HEPES and 0.15 M NaCl, pH 7.5). The platelet aggregation was determined by a change in light transmission through the PRP on a Lumi Aggregometer 400rS (ChronoLog, Hayertown, PA). The ability of the peptides to inhibit platelet aggregation was evaluated and the IC50 was determined as the concentration of peptide required to produce 50% inhibition of the response to ADP in the presence of the TRIS buffer.
The assay system developed by Coller, which is used throughout the experiment, is different from conventional assay systems in certain aspects. First, the platelets used by Plow et al., Blood, 70, 110 (1987); and Garsky et al., Proc. Natl. Acad. Sci. U.S.A., 86, 4022 (1989) are gel-filtered to remove plasma proteins. Since the gel-filtration treatment may decrease the reactivity of the platelets, our assay avoids this step. The platelet count is adjusted by simply mixing PRP and PPP, which minimizes alterations of the platelets. Second, fibrinogen concentration in the Coller system is different from that of others. As shown in the experimental description of the assay, PRP was obtained from fresh blood and used immediately without further manipulation except for count adjustment. According to measurements obtained using this assay, such plasma contains ca. 3 mg of fibrinogen per 1 mL of plasma. On the other hand, fibrinogen concentration used in the Garsky and Plow assay system is 0.1 mg/mL. The concentration of fibrinogen affects the amount of RGD peptide required to inhibit platelet aggregation, with higher fibrinogen concentrations resulting in higher IC50 values. If there is a linear relationship between these two parameters, the IC50 values obtained from the Coller assay should be ca. 30 times larger than those obtained from the Plow et al. assay or the Garsky et al. assay. The adjusted IC50 values are presented in column 4 of Table showing the inhibitory activities of RGD peptides.
The following peptides were synthesized, and their amino acid contents were analyzed as described in procedures 3-7, above. In addition, their ability to inhibit aggregation of human platelet rich plasma was assessed as described in procedures 1 and 2, above. Their respective IC50 values, as well as their estimated IC50 adjusted to the values according the method of Plow et al., (vide supra) are listed in Table 1.

Row | Structure (SMILES) | IC50 (M)* Estimated IC50 adjusted to the values by the method of Plow et al.
1 | N=C(N)NCCC[C@H](NC(=O)CN)C(=O)NCC(=O)N[C@@H](CC(=O)O)C(=O)N[C@@H](Cc1ccccc1)C(=O)NCCC[C@H](NC(=O)[C@H](Cc1ccccc1)NC(=O)[C@H](CC(=O)O)NC(=O)CNC(=O)[C@H](CCCNC(=N)N)NC(=O)CN)C(=O)NCC(=O)N[C@@H](CCCNC(=N)N)C(=O)NCC(=O)N[C@@H](CC(=O)O)C(=O)N[C@@H](Cc1ccccc1)C(N)=O [Example 18, (GRGDF)2 Orn--GRGDF--NH2] | 2.1e-06 M
2 | N=C(N)NCCC[C@H](NC(=O)CN)C(=O)NCC(=O)N[C@@H](CC(=O)O)C(=O)N[C@@H](Cc1ccccc1)C(=O)NCC(=O)Nc1cc(NC(=O)CNC(=O)[C@H](Cc2ccccc2)NC(=O)[C@H](CC(=O)O)NC(=O)CNC(=O)[C@H](CCCNC(=N)N)NC(=O)CN)cc(C(=O)NCC(=O)N[C@@H](CCCNC(=N)N)C(=O)NCC(=O)N[C@@H](CC(=O)O)C(=O)N[C@@H](Cc2ccccc2)C(N)=O)c1 [Example 15, (GRGDFG)2 Dab--GRGDF--NH2] | 1.1e-06 M
3 | N=C(N)NCCC[C@H](NC(=O)CN)C(=O)NCC(=O)N[C@@H](CC(=O)O)C(=O)N[C@@H](CO)C(=O)NCC(=O)Nc1cccc(C(=O)NCC(=O)N[C@@H](CCCNC(=N)N)C(=O)NCC(=O)N[C@@H](CC(=O)O)C(=O)N[C@@H](Cc2ccccc2)C(N)=O)c1 [Example 26, GRGDSG--(m)Abz--GRGDF--NH2] (H-GRGDSG[3Abz]GRGDF-NH2) | 3e-06 M
4 | CC(C)[C@H](NC(=O)[C@H](CC(=O)O)NC(=O)CNC(=O)[C@H](CCCNC(=N)N)NC(=O)CN)C(=O)NCC(=O)Nc1ccccc1C(=O)NCC(=O)N[C@@H](CCCNC(=N)N)C(=O)NCC(=O)N[C@@H](CC(=O)O)C(=O)N[C@@H](Cc1ccccc1)C(N)=O [Example 28, GRGDVG--(o)Abz--GRGDF--NH2] (H-GRGDVG[2Abz]GRGDF-NH2) | 3.1e-06 M
5 | N=C(N)NCCC[C@H](NC(=O)c1ccccc1)C(=O)NCC(=O)N[C@@H](CC(=O)O)C(=O)N[C@@H](Cc1ccccc1)C(=O)NCCCC[C@H](NC(=O)[C@H](Cc1ccccc1)NC(=O)[C@H](CC(=O)O)NC(=O)CNC(=O)[C@H](CCCNC(=N)N)NC(=O)c1ccccc1)C(N)=O [Example 7, (BzRGDF)2 Lys--NH2] | 2.9e-07 M
6 | N=C(N)NCCC[C@H](NC(=O)CN)C(=O)NCC(=O)N[C@@H](CC(=O)O)C(=O)N[C@@H](Cc1ccccc1)C(=O)NCC(=O)Nc1ccccc1C(=O)NCC(=O)N[C@@H](CCCNC(=N)N)C(=O)NCC(=O)N[C@@H](CC(=O)O)C(=O)N[C@@H](Cc1ccccc1)C(N)=O [Example 22, GRGDFG-(o)Abz--GRGDF--NH2] (H-GRGDFG[2Abz]GRGDF-NH2) | 3.1e-06 M
7 | N=C(N)NCCC[C@H](NC(=O)CN)C(=O)NCC(=O)N[C@@H](CC(=O)O)C(=O)N[C@@H](Cc1ccccc1)C(=O)NCC(=O)Nc1ccc(C(=O)NCC(=O)N[C@@H](CCCNC(=N)N)C(=O)NCC(=O)N[C@@H](CC(=O)O)C(=O)N[C@@H](Cc2ccccc2)C(N)=O)cc1 [Example 24, GRGDFG--(p)Abz--GRGDF--NH2] (H-GRGDFG[4Abz]GRGDF-NH2) | 2.1e-06 M
8 | N=C(N)NCCC[C@H](NC(=O)CN)C(=O)NCC(=O)N[C@@H](CC(=O)O)C(=O)N[C@@H](Cc1ccccc1)C(=O)NCCCC[C@H](NC(=O)[C@H](Cc1ccccc1)NC(=O)[C@H](CC(=O)O)NC(=O)CNC(=O)[C@H](CCCNC(=N)N)NC(=O)CN)C(=O)NCC(=O)N[C@@H](CCCNC(=N)N)C(=O)NCC(=O)N[C@@H](CC(=O)O)C(=O)N[C@@H](Cc1ccccc1)C(N)=O [Example 17, (GRGDF)2 Lys--GRGDF--NH2] | 1.7e-06 M
9 | N=C(N)NCCC[C@H](N)C(=O)NCC(=O)N[C@@H](CC(=O)O)C(=O)N[C@@H](Cc1ccccc1)C(=O)NCCCC[C@H](NC(=O)[C@H](Cc1ccccc1)NC(=O)[C@H](CC(=O)O)NC(=O)CNC(=O)[C@@H](N)CCCNC(=N)N)C(N)=O [Example 3, (RGDF)2 Lys--NH2] | 1.2e-06 M
10 | N=C(N)NCCC[C@H](NC(=O)CCCCC(=O)N[C@@H](CCCNC(=N)N)C(=O)NCC(=O)N[C@@H](CC(=O)O)C(=O)N[C@@H](Cc1ccccc1)C(=O)O)C(=O)NCC(=O)N[C@@H](CC(=O)O)C(=O)N[C@@H](Cc1ccccc1)C(=O)O [Example 14, Bda(RGDF--OH)2] (I: RGDF-OH / II: RGDF-OH; linker I:N-II:N via Adipoyl) | 4.7e-07 M
11 | N=C(N)NCCC[C@H](NC(=O)CCCC(=O)N[C@@H](CCCNC(=N)N)C(=O)NCC(=O)N[C@@H](CC(=O)O)C(=O)N[C@@H](Cc1ccccc1)C(=O)O)C(=O)NCC(=O)N[C@@H](CC(=O)O)C(=O)N[C@@H](Cc1ccccc1)C(=O)O [Example 13, Pda (RGDF--OH)2] (I: RGDF-OH / II: RGDF-OH; linker I:N-II:N via Glutaryl) | 5e-07 M
12 | N=C(N)NCCC[C@H](NC(=O)CN)C(=O)NCC(=O)N[C@@H](CC(=O)O)C(=O)N[C@@H](Cc1ccccc1)C(=O)NCC(=O)Nc1ccc(C(=O)NCC(=O)N[C@@H](CCCNC(=N)N)C(=O)NCC(=O)N[C@@H](CC(=O)O)C(=O)N[C@@H](Cc2ccccc2)C(=O)O)cc1 [Example 21, GRGDFG--(p)Abz--GRGDF--OH] (H-GRGDFG[4Abz]GRGDF-OH) | 1.2e-06 M

The remaining lines, values ahead:

Row | IC50 (M)* Estimated IC50 adjusted to the values by the method of Plow et al. | Structure (SMILES)
13 | 7.2e-07 M | N=C(N)NCCC[C@H](NC(=O)C1CC(NC(=O)[C@H](Cc2ccccc2)NC(=O)[C@H](CC(=O)O)NC(=O)CNC(=O)[C@@H](N)CCCNC(=N)N)CC(NC(=O)[C@H](Cc2ccccc2)NC(=O)[C@H](CC(=O)O)NC(=O)CNC(=O)[C@@H](N)CCCNC(=N)N)C1)C(=O)NCC(=O)N[C@@H](CC(=O)O)C(=O)N[C@@H](Cc1ccccc1)C(=O)O (some centres unmarked) [Example 16, (RGDF)2 Dac--RGDF--OH]
14 | 1.5e-06 M | CC(C)[C@H](NC(=O)[C@H](CC(=O)O)NC(=O)CNC(=O)[C@H](CCCNC(=N)N)NC(=O)CN)C(=O)NCC(=O)Nc1cccc(C(=O)NCC(=O)N[C@@H](CCCNC(=N)N)C(=O)NCC(=O)N[C@@H](CC(=O)O)C(=O)N[C@@H](Cc2ccccc2)C(N)=O)c1 [Example 29, GRGDVG--(m)Abz--GRGDF--NH2] (H-GRGDVG[3Abz]GRGDF-NH2)
15 | 6.7e-07 M | N=C(N)NCCC[C@H](N)C(=O)NCC(=O)N[C@@H](CC(=O)O)C(=O)N[C@@H](Cc1ccccc1)C(=O)N1CCC[C@H]1C(=O)NCC(=O)Nc1cc(NC(=O)CNC(=O)[C@@H]2CCCN2C(=O)[C@H](Cc2ccccc2)NC(=O)[C@H](CC(=O)O)NC(=O)CNC(=O)[C@@H](N)CCCNC(=N)N)cc(C(=O)NCC(=O)O)c1 [Example 1, (RGDFPG)2 Dab--G--OH] (I: H-RGDFPG / II: H-RGDFPG; linker I:C-II:C via X2; N-terminus assumed)
16 | 4.2e-07 M | N=C(N)NCCC[C@H](N)C(=O)NCC(=O)N[C@@H](CC(=O)O)C(=O)N[C@@H](Cc1ccccc1)C(=O)N1CCC[C@H]1C(=O)NCC(=O)Nc1cc(NC(=O)CNC(=O)[C@@H]2CCCN2C(=O)[C@H](Cc2ccccc2)NC(=O)[C@H](CC(=O)O)NC(=O)CNC(=O)[C@@H](N)CCCNC(=N)N)cc(C(N)=O)c1 [Example 2, (RGDFPG)2 Dab--NH2] (I: H-RGDFPG / II: H-RGDFPG; linker I:C-II:C via X1; N-terminus assumed)
17 | 7.6e-08 M | CCCCCC(=O)N[C@@H](CCCNC(=N)N)C(=O)NCC(=O)N[C@@H](CC(=O)O)C(=O)N[C@@H](Cc1ccccc1)C(=O)NCCCC[C@H](NC(=O)[C@H](Cc1ccccc1)NC(=O)[C@H](CC(=O)O)NC(=O)CNC(=O)[C@H](CCCNC(=N)N)NC(=O)CCCCC)C(N)=O [Example 8, (HexRGDF)2 Lys--NH2]
